Test results reported in publication PMC6407917, “Identification of GSK3186899/DDD853651 as a Preclinical Development Candidate for the Treatment of Visceral Leishmaniasis” (Journal of Medicinal Chemistry, 2018).

Tests used:
Experiment in all cases: biochemical
Design in all cases: species or system HEK293/K-562/placenta mixed human extract; Kinobeads chemoproteomic competition binding, quantified by TMT LC-MS/MS, dose response up to 20 uM
CDC42BPB = CDC42BPB (Homo sapiens, UniProt Q9Y5S2)
TNK1 = TNK1 (Homo sapiens, UniProt Q13470)
CAMK2G = CAMK2G (Homo sapiens, UniProt Q13555)
Chain of CAMK2G (Q13555 whole entry): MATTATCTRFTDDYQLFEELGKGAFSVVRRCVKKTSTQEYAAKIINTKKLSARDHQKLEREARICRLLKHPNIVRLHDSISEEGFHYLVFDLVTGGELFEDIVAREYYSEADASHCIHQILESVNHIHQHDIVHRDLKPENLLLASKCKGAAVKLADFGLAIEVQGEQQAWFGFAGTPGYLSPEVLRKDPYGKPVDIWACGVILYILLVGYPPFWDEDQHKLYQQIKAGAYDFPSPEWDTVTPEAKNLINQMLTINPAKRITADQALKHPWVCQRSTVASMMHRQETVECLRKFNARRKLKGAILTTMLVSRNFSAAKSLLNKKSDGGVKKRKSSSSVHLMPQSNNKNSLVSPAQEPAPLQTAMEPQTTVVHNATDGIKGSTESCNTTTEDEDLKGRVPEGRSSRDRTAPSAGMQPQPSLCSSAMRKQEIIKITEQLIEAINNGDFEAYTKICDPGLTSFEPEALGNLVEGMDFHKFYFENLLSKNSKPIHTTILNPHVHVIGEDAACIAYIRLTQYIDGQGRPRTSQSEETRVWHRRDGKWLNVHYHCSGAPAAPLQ

EGFR = EGFR (Homo sapiens, UniProt P00533)
YWHAG = YWHAG (Homo sapiens, UniProt P61981)
Chain of YWHAG (P61981 whole entry): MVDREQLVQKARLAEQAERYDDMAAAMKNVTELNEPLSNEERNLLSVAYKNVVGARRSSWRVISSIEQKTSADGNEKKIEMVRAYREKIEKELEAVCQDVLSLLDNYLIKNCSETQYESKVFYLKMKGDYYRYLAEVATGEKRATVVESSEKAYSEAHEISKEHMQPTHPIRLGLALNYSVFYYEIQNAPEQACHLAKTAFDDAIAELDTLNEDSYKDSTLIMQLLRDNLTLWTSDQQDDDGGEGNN

AURKB = AURKB (Homo sapiens, UniProt Q96GD4)
RPS6KB1 = RPS6KB1 (Homo sapiens, UniProt P23443)
Chain of RPS6KB1 (P23443 whole entry): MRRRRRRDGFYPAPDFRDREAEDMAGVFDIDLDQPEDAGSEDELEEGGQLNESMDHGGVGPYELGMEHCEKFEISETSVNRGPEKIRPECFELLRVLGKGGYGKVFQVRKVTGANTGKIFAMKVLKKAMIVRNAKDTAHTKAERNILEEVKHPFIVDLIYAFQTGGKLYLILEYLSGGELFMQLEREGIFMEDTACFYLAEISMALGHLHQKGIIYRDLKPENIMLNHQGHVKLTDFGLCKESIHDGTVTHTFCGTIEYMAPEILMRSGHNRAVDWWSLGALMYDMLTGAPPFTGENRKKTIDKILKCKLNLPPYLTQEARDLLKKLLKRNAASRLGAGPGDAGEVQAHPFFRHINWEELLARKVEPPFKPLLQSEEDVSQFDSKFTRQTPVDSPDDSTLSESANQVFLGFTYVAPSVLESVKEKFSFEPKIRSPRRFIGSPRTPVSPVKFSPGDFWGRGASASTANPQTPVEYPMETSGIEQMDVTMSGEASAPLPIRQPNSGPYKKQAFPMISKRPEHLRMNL

MARK3 = MARK3 (Homo sapiens, UniProt P27448)
TESK2 = TESK2 (Homo sapiens, UniProt Q96S53)
CDK9 = CDK9 (Homo sapiens, UniProt P50750)
Chain of CDK9 (P50750 whole entry): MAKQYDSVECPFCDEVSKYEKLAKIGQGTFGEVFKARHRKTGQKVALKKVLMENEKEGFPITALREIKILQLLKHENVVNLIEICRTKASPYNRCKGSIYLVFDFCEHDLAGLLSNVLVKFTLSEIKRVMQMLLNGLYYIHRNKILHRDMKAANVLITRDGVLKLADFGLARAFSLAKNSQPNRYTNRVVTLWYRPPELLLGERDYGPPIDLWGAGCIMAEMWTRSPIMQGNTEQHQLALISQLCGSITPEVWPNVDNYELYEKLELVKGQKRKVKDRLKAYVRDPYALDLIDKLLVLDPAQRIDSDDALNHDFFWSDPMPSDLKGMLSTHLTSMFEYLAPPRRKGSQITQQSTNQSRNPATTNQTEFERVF

EPHA2 = EPHA2 (Homo sapiens, UniProt P29317)
AURKA = AURKA (Homo sapiens, UniProt O14965)
STRADA = STRADA (Homo sapiens, UniProt Q7RTN6)
DCK = DCK (Homo sapiens, UniProt P27707)
Chain of DCK (P27707 whole entry): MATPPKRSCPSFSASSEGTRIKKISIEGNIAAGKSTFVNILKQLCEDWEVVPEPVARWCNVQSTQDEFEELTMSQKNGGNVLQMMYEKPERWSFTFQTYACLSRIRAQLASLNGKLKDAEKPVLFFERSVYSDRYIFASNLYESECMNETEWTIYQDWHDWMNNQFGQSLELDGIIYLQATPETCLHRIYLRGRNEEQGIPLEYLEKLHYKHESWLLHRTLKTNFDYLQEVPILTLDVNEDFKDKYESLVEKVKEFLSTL

MARK2 = MARK2 (Homo sapiens, UniProt Q7KZI7)
IRAK4 = IRAK4 (Homo sapiens, UniProt Q9NWZ3)
MAPKAPK3 = MAPKAPK3 (Homo sapiens, UniProt Q16644)
EPHB6 = EPHB6 (Homo sapiens, UniProt O15197)
Chain of EPHB6 (O15197 whole entry): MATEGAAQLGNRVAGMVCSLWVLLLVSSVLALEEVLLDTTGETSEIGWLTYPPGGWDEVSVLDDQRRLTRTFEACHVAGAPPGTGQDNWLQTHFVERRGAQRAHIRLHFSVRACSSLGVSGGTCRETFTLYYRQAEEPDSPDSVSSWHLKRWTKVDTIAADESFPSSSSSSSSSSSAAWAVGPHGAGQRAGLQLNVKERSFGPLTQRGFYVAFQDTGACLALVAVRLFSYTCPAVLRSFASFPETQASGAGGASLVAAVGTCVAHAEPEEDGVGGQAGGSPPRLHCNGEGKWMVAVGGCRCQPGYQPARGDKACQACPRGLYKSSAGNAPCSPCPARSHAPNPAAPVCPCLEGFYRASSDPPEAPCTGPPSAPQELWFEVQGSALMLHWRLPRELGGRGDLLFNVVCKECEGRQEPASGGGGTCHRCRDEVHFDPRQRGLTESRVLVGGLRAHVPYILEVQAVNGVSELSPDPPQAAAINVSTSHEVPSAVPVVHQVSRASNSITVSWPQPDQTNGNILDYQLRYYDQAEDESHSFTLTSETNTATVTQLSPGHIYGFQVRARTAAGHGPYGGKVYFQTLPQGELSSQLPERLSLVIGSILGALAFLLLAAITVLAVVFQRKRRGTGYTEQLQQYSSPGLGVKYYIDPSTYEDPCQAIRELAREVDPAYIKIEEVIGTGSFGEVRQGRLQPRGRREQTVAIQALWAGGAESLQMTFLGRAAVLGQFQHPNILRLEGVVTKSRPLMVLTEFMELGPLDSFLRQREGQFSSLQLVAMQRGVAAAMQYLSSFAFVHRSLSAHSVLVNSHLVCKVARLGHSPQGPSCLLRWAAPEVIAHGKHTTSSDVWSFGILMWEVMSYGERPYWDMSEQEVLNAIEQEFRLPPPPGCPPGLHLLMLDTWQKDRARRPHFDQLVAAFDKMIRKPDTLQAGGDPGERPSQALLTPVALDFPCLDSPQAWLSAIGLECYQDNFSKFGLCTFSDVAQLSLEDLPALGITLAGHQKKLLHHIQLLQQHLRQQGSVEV

CDK5 = CDK5 (Homo sapiens, UniProt Q00535)
Chain of CDK5 (Q00535 whole entry): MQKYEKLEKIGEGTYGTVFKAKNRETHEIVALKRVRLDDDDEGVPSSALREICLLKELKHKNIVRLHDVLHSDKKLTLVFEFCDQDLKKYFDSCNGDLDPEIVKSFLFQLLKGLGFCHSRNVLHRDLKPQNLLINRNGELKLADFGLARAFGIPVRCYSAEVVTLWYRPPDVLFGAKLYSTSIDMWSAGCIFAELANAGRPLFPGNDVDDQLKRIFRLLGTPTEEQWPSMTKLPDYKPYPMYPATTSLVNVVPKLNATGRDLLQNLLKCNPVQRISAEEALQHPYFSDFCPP

TNIK = TNIK (Homo sapiens, UniProt Q9UKE5)
ITK = ITK (Homo sapiens, UniProt Q08881)

Chain of CDC42BPB (Q9Y5S2 whole entry): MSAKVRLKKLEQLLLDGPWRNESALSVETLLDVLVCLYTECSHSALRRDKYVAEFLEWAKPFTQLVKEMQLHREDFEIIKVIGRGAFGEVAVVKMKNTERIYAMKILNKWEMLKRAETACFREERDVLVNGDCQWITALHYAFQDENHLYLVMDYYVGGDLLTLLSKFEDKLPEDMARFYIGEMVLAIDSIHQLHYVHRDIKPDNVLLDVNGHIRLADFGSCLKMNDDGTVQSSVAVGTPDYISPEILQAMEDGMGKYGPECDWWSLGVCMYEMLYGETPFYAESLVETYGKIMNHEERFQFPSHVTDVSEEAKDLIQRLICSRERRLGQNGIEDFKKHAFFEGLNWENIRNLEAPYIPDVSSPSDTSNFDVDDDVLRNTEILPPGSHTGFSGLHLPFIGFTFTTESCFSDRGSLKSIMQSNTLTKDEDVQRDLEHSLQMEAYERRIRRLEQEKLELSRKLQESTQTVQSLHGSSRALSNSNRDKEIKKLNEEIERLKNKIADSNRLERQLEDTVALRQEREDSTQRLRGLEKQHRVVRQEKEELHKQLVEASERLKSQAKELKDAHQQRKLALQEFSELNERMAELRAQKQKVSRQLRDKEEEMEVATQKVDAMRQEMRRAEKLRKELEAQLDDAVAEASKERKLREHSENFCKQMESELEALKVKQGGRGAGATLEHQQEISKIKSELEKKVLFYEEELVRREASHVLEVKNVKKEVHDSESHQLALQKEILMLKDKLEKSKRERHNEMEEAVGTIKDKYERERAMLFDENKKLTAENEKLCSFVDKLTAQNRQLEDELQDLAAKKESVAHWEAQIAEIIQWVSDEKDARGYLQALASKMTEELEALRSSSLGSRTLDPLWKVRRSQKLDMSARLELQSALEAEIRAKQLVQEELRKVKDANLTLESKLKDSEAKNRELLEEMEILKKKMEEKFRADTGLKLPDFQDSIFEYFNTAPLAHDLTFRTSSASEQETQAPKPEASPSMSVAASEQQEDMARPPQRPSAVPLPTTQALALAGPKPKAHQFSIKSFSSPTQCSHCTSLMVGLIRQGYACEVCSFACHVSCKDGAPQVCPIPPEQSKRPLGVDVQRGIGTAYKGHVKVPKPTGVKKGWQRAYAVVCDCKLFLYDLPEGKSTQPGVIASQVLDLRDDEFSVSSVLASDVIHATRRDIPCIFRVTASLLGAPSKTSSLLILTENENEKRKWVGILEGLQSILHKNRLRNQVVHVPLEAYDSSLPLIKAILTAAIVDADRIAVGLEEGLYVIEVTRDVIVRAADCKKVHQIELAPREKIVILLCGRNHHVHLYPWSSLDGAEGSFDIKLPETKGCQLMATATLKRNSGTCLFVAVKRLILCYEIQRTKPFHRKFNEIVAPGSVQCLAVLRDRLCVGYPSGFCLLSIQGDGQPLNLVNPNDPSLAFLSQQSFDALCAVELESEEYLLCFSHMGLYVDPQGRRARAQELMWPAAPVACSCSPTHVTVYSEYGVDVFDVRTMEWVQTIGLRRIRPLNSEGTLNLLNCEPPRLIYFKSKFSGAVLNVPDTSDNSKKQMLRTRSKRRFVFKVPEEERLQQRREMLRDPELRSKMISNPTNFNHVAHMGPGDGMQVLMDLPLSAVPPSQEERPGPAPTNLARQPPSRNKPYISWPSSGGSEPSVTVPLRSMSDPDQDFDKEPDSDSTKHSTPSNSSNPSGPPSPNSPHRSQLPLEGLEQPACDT

IC50 (CDC42BPB): ≥ 20 µM
IC50 (TNK1): ≥ 20 µM
IC50 (CAMK2G): ≥ 20 µM
IC50 (EGFR): ≥ 20 µM
IC50 (YWHAG): ≥ 20 µM
IC50 (AURKB): ≥ 20 µM
IC50 (RPS6KB1): ≥ 20 µM
IC50 (MARK3): ≥ 20 µM
IC50 (TESK2): ≥ 20 µM
IC50 (CDK9): 3.6 µM
IC50 (EPHA2): ≥ 20 µM
IC50 (AURKA): ≥ 20 µM
IC50 (STRADA): ≥ 20 µM
IC50 (DCK): ≥ 20 µM
IC50 (MARK2): ≥ 20 µM
IC50 (IRAK4): ≥ 20 µM
IC50 (MAPKAPK3): ≥ 20 µM
IC50 (EPHB6): ≥ 20 µM
IC50 (CDK5): 1.2 µM
IC50 (TNIK): ≥ 20 µM
IC50 (ITK): ≥ 20 µM
Structure (SMILES): COc1ccccc1-c1n[nH]c2nc(N[C@H]3CC[C@H](NS(=O)(=O)CCC(F)(F)F)CC3)nc(OC)c12 [compound 31, 3,3,3-Trifluoro-N-(trans-4-((4-methoxy-3-(2-methoxyphenyl)-1H-pyrazolo[3,4-d]pyrimidin-6-yl)amino)cyclohexyl)propane-1-sulfonamide]
